Data taken from US10750742B2, “Pesticidally active pyrazole derivatives” (SYNGENTA PARTICIPATIONS AG, priority 2015, dated 2020).
Blank lines part the entries; values can stand above or below the molecule they belong to.

Assays:
Euschistus heros = Euschistus heros (neotropical brown stink bug), soybean leaf test; type: in vivo; conditions: 120 h, read-out: effect in at least one of the two categories (mortality or growth inhibition)
Method: Euschistus heros (Neotropical Brown Stink Bug):
Soybean leaves on agar in 24-well microtiter plates were sprayed with aqueous test solutions prepared from 10′000 ppm DMSO stock solutions. After drying the leaves were infested with N2 nymphs. The samples were assessed for mortality and growth inhibition in comparison to untreated samples 5 days after infestation.

Spodoptera littoralis [1] = test: Spodoptera littoralis (Egyptian cotton leaf worm), cotton leaf disc spray test; type: in vivo; conditions: foliar, 72 h, read-out: control (at least one of mortality, anti-feedant effect, growth inhibition)
How it was run: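 Five first-instar larvae per disc were placed on dried, sprayed cotton leaf discs held on agar. Test solutions were aqueous, made from 10′000 ppm DMSO stocks. At day 3, control was counted when mortality, feeding deterrence or growth inhibition exceeded the untreated discs.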

Myzus persicae [2] = test: Myzus persicae (green peach aphid), sucrose solution / Parafilm test; type: in vivo; conditions: 120 h
How it was run: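 Compound mixed into sucrose solution at 12.5 ppm under stretched Parafilm; aphid-infested pea seedlings set on the membrane and plate inverted so insects feed through it. Mortality assessed 5 days after infestation.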

Spodoptera littoralis [3] = test: Comparison: insecticidal activity against Spodoptera littoralis, larvicide L-3, feeding/contact, soybean plants; type: in vivo; conditions: 120 h
Method: (§1) Biological Comparison Data:
(§2) Compound A and B are disclosed in WO2014/122083 as example (Ic-1) (p. 76) and (lc-2) (p. 82, Table 3). The activities of compounds A and B to treat different pests are compared with the activities of compound 4, 6, 15 and 35 according to the present invention. The tests are carried out at different concentrations (ppm).
a) Insecticidal Activity Against Spodoptera littoralis (Egyptian Cotton Leaf Worm, Larvicide L-3, Feeding/Contact)
Soybean plants were sprayed with diluted test solutions in an application chamber. The plants (2 replicates) were infested with 10 L3 larvae 1 day after treatment. Samples were checked 5 days after infestation for mortality, feeding behavior, and growth regulation.

Plutella xylostella = Plutella xylostella (diamond back moth), artificial diet test; type: in vivo; conditions: 120 h, read-out: control (mortality and growth inhibition)
Method: Plutella xylostella (Diamond Back Moth):
(§3) 24-well microtiter plates with artificial diet were treated with aqueous test solutions prepared from 10′000 ppm DMSO stock solutions by pipetting. After drying, the plates were infested with L2 larvae (10 to 15 per well). The samples were assessed for mortality and growth inhibition in comparison to untreated samples 5 days after infestation.

Myzus persicae [4] = test: Myzus persicae (green peach aphid), sunflower leaf disc spray test; type: in vivo; conditions: foliar, 144 h
Thrips tabaci [5] = test: Thrips tabaci (onion thrips), sunflower leaf disc test; type: in vivo; conditions: foliar, 144 h, read-out: control (mortality)
Method: Thrips tabaci (Onion Thrips):
(§4) Sunflower leaf discs were placed on agar in 24-well microtiter plates and sprayed with aqueous test solutions prepared from 10′000 ppm DMSO stock solutions. After drying the leaf discs were infested with a thrips population of mixed ages. The samples were assessed for mortality 6 days after infestation.

Diabrotica balteata = Diabrotica balteata (corn root worm), maize sprout test; type: in vivo; conditions: 96 h, read-out: control (mortality and growth inhibition)
Method: Diabrotica balteata, (Corn Root Worm)
as §3, with “Maize sprouts, placed on an agar layer in 24-well” for “24-well”, “plates” for “plates with artificial diet”, “spraying.” for “pipetting.”, “(6” for “(10”, “10” for “15”, “4” for “5”

Tetranychus urticae = Tetranychus urticae (two-spotted spider mite), bean leaf disc test; type: in vivo; conditions: foliar, 192 h, read-out: control (mortality on mixed population, mobile stages)
Method: Tetranychus urticae (Two-Spotted Spider Mite):
as §4, with “Bean” for “Sunflower”, “discs” for “discs were placed”, “were” for “and”, “mite” for “thrips”, “on mixed population (mobile stages) 8” for “6”

Thrips tabaci [6] = test: Comparison: insecticidal activity against Thrips tabaci, sunflower leaf discs; type: in vivo; conditions: 6 days after infestation
Method: as §1, §2
b) Insecticidal Activity Against Thrips tabaci (Onion Thrips):
as §4

Compound: CN1N=C(OC(F)(F)C(F)C(F)(F)F)C(C(F)(F)F)C1n1cc(-c2cc(F)c(Cl)c(C(=O)NC3CC3)c2)cn1 (centres unmarked)
melting point: 114 to 116 °C

Compound: Cn1nc(OC(F)(F)C(F)C(F)(F)F)c(C(F)(F)F)c1-n1cc(-c2cccc(C(=O)NC3(C#N)CC3)c2F)cn1 (centres unmarked)
melting point: 59 to 61 °C

Compound: Cn1nc(OC(F)(F)C(F)(F)C(F)(F)F)c(C(F)(F)F)c1-n1cc(-c2ccc(Cl)c(C(=O)NC3(C#N)CC3)c2)cn1 [compound 35]
percent control (mortality or growth inhibition) at 200 ppm (Euschistus heros): ≥ 80% | mortality at 200 ppm (Spodoptera littoralis [1]): ≥ 80% | mortality at 12 ppm (Myzus persicae [2]): ≥ 80% | mortality at 0.2 ppm (Spodoptera littoralis [3]): 0% | mortality at 0.8 ppm (Spodoptera littoralis [3]): 100% | mortality at 3 ppm (Spodoptera littoralis [3]): 100% | mortality at 12.5 ppm (Spodoptera littoralis [3]): 100% | mortality at 200 ppm (Plutella xylostella): ≥ 80% | mortality at 200 ppm (Myzus persicae [4]): ≥ 80% | mortality at 200 ppm (Thrips tabaci [5]): ≥ 80% | mortality at 200 ppm (Diabrotica balteata): ≥ 80% | mortality at 200 ppm (Tetranychus urticae): ≥ 80%

Compound: Cn1nc(C(F)(F)C(F)(F)F)c(C(F)(F)F)c1-n1cc(-c2ccc(Cl)c(C(=O)NC3(C#N)CC3)c2)cn1 [B, reference compound]
mortality at 0.2 ppm (Spodoptera littoralis [3]): 20% | mortality at 0.8 ppm (Spodoptera littoralis [3]): 75% | mortality at 3 ppm (Spodoptera littoralis [3]): 100% | mortality at 12.5 ppm (Spodoptera littoralis [3]): 100% | Mortality (%) (Thrips tabaci [6]; 12.5 ppm): 100% | mortality at 0.05 ppm (Thrips tabaci [6]; Thrips tabaci, foliar, 144 h, 0.05 ppm): 0% | mortality at 0.2 ppm (Thrips tabaci [6]; Thrips tabaci, foliar, 144 h, 0.2 ppm): 25% | mortality at 0.781 ppm (Thrips tabaci [6]; Thrips tabaci, foliar, 144 h, 0.781 ppm): 0% | mortality at 0.8 ppm (Thrips tabaci [6]; Thrips tabaci, foliar, 144 h, 0.8 ppm): 90% | mortality at 3 ppm (Thrips tabaci [6]; Thrips tabaci, foliar, 144 h, 3 ppm): 100% | mortality at 3.12 ppm (Thrips tabaci [6]; Thrips tabaci, foliar, 144 h, 3.12 ppm): 25% | mortality at 12.5 ppm (Thrips tabaci [6]; Thrips tabaci, foliar, 144 h, 12.5 ppm): 90% | mortality at 50 ppm (Thrips tabaci [6]; Thrips tabaci, foliar, 144 h, 50 ppm): 100% | mortality at 200 ppm (Thrips tabaci [6]; Thrips tabaci, foliar, 144 h, 200 ppm): 100%

Compound: CN1N=C(OC(F)(F)C(F)C(F)(F)F)C(C(F)(F)F)C1n1cc(-c2cc(F)c(Cl)c(C(=O)NC3(C#N)CC3)c2)cn1 (centres unmarked)
melting point: 82 to 84 °C

Now from value to molecule:

melting point: 68 to 70 °C
Compound: Cn1nc(OC(F)(F)C(F)C(F)(F)F)c(C(F)(F)F)c1-n1cc(-c2cc(C(=O)NC3CC3)c(Cl)cc2F)cn1 (centres unmarked)

melting point: 67 to 70 °C
Compound: Cn1nc(OC(F)(F)C(F)C(F)(F)F)c(C(F)(F)F)c1-n1cc(-c2cc(Cl)c(Cl)c(C(=O)NC3CC3)c2)cn1 (centres unmarked)

melting point: 162 to 165 °C
Compound: Cn1nc(OC(F)(F)C(F)C(F)(F)F)c(C(F)(F)F)c1-n1cc(-c2cc(Cl)c(Cl)c(C(=O)NC3(C#N)CC3)c2)cn1 (centres unmarked)
